# Results as given in PubChem BioAssay (NCI).
# Where “and” joins values, the source holds several entries; their conditions need not be identical. Identical values can stand only once.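 Values below derive from 48-hour exposures of cells grown in 96-well plates, with endpoints linearly interpolated between the two concentrations bracketing the appropriate inhibition level. At the GI50, growth is halved. TGI marks complete inhibition of growth.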
# What was measured:
# Assay in all cases: NCI anticancer screen, dose series, 48 h
# SR leukemia = test system: SR leukemia
# MCF7 breast = test system: MCF7 breast
# PC-3 prostate = test system: PC-3 prostate
# CAKI-1 renal = test system: CAKI-1 renal
# A498 renal = test system: A498 renal
# SF-539 CNS = test system: SF-539 CNS
# OVCAR-5 ovarian = test system: OVCAR-5 ovarian
# COLO 205 colon = test system: COLO 205 colon
# SNB-75 CNS = test system: SNB-75 CNS
# SN12C renal = test system: SN12C renal
SMILES,TGI (SR leukemia),TGI (MCF7 breast),TGI (PC-3 prostate),TGI (CAKI-1 renal),TGI (A498 renal),TGI (SF-539 CNS),TGI (OVCAR-5 ovarian) [µM],TGI (COLO 205 colon),TGI (SNB-75 CNS),TGI (SN12C renal),GI50 (SR leukemia) [µM],GI50 (MCF7 breast) [µM],GI50 (PC-3 prostate) [µM],GI50 (CAKI-1 renal) [µM],GI50 (A498 renal) [µM],GI50 (SF-539 CNS) [µM],GI50 (OVCAR-5 ovarian) [µM],GI50 (COLO 205 colon) [µM],GI50 (SNB-75 CNS) [µM],GI50 (SN12C renal) [µM]
COC1=CC(=O)c2c(O)c3c(c(O)c2C1=O)OC1(Oc2c(cc4cc(C)oc(=O)c4c2O)CC1O)C3O (configuration not stated),> 100 µM,> 100 µM,> 100 µM,53.9 µM,> 100 µM,> 100 µM,> 100,> 100 µM,> 100 µM,49.3 µM,,,,,,,,,,
O=c1ncc(I)c[nH]1,> 100 µM,> 100 µM,> 100 µM,> 100 µM,> 100 µM,> 100 µM,> 100,> 100 µM,> 100 µM,> 100 µM,> 100,> 100,> 100,> 100,> 100,> 100,> 100,> 100,> 100,> 100
CS(=O)(=O)OCCCCOS(C)(=O)=O,223 µM and > 1000 µM,250 µM and > 1000 µM,250 µM and > 1000 µM,212 µM and 980 µM,249 µM and > 1000 µM,250 µM and > 1000 µM,> 1000,250 µM and > 1000 µM,221 µM and > 1000 µM,250 µM and > 1000 µM,100,534,> 1000,305,> 883,437,> 698,> 1000,431,623
C/C(=N\NC(=O)c1cccc(S(=O)(=O)N2CCN(C)CC2)c1)c1cc(Cl)ccc1O,> 52.9 µM,> 100 µM,> 100 µM,27.5 µM,> 100 µM,21.8 µM,> 100,15.3 µM,32.3 µM,> 100 µM,0.383,0.423,1.18,0.567,40.6,1.06,1.86,0.387,0.648,1.19
O=c1[nH]ccc2nc(N3CCC(O)CC3)nc(Nc3ccc(N4CCOCC4)cc3)c12,> 100 µM,> 100 µM,> 100 µM,> 100 µM,9.77 µM,11.2 µM,> 100,5.05 µM,12.1 µM,> 100 µM,3.14,4.45,> 100,0.367,1.49,2.85,3.38,1.71,2.39,2.55
COc1ccc(C2CC(c3ccc4ccccc4c3)=NN2/C=C2\SC(=S)N(NC(=O)Cc3ccccc3Nc3c(Cl)cccc3Cl)C2=O)cc1 (configuration not stated),> 100 µM,> 50.5 µM,> 54 µM,> 40 µM,0.99 µM,1.12 µM,> 45.6,> 100 µM,1.4 µM,> 48.9 µM,0.309,0.361,0.714,0.392,0.302,0.282,1.74,1.89,0.257,0.647
O=C(CC(O)c1cccnc1)CC(O)c1cccnc1 (configuration not stated),> 100 µM,20 µM,42.9 µM,35.9 µM,30.6 µM,53.8 µM,54,29 µM,35.4 µM,38.8 µM,,,,,,,,,,
OCCNC(=S)Nc1ccc(-c2nc(N3C[C@H]4CC[C@@H](C3)O4)c3cccn3n2)cc1,> 38 µM,11.4 µM,8.13 µM,> 37.8 µM,0.0307 µM,0.767 µM,15.3,1.69 µM,0.264 µM,16.9 µM,0.082,0.0231,0.0284,0.132,< 0.01,0.108,0.0379,0.0365,< 0.0124,0.0617
Cc1ccccc1NC(=O)N/C(N)=N/c1nc(C)c(C)s1,> 100 µM,> 100 µM,> 100 µM,97.1 µM,0.803 µM,4.38 µM,> 100,,0.754 µM,> 100 µM,0.0438,0.142,0.395,0.197,0.125,0.254,0.912,0.295,0.175,1.23
C[C@]12CC/C(=N\O)C[C@@H]1CC[C@@H]1[C@@H]2CC[C@]2(C)/C(=N/O)CC[C@@H]12,> 100 µM,98.8 µM,> 100 µM,86.2 µM,> 100 µM,> 100 µM,> 100,> 100 µM,> 100 µM,> 100 µM,35,26.1,43.7,25.4,47.2,37.9,46.1,35.8,37.3,47.1
S=P(C1CCCCC1)(C1CCCCC1)C(c1cccnc1)N1CCCC1 (configuration not stated),44.7 µM,> 100 µM,36.9 µM,31.9 µM,67.9 µM,35.2 µM,> 100,37.3 µM,35.4 µM,33.1 µM,,,,,,,,,,
COc1ccc(/C=C(/C(=O)N2CCN(c3ccc(C)cc3)CC2)c2cc(OC)c(OC)c(OC)c2)cc1N,> 100 µM,> 100 µM,> 100 µM,> 100 µM,2.3 µM,0.717 µM,> 100,1.47 µM,> 100 µM,> 100 µM,0.238,0.228,0.312,0.465,0.0571,0.176,0.715,0.339,0.509,0.483
CCN(CC)c1ccc(CNc2cc(C)nc3ccc(OC)cc23)cc1,4.56 µM,3.53 µM,13.1 µM,10.5 µM,10.1 µM,4.36 µM,18.6,2.76 µM,5.05 µM,20.6 µM,1.87,1.7,2.82,1.89,2.24,2.22,5.37,1.31,2.04,5.33
CC/C=C\C[C@H](O)C/C=C1/C(=O)C=C[C@@H]1C/C=C\CCCC(=O)OCCS(=O)(=O)c1ccccc1,13.2 µM,18.6 µM,10.9 µM,13.7 µM,35.5 µM,16.9 µM,29.5,6.89 µM,88.8 µM,19.1 µM,2.87,2.39,3.83,3.86,19.1,4.68,12.4,2.85,17.2,3.62
CC[C@]12C=CCN3CC[C@@]4(c5ccc(OC)cc5N(C)[C@H]4[C@@](O)(C(=O)OC)[C@@H]1OC(=O)CCCC[P+](c1ccccc1)(c1ccccc1)c1ccccc1)[C@@H]32,4.14 µM,5.3 µM,7.77 µM,13.7 µM,10.4 µM,12.1 µM,12.5,0.586 µM,2.08 µM,8.26 µM,0.446,0.32,0.391,3.61,2.84,0.993,1.82,0.242,0.357,0.414
CCCCCCCCCCCCCCCCSS(C)(=O)=O,21.1 µM,> 100 µM,> 100 µM,26.1 µM,> 97.2 µM,> 56.4 µM,> 100,47.4 µM,32.6 µM,> 69.5 µM,,,,,,,,,,
Cc1ccc(C(=O)Nc2ccc(CN3CCN(C)CC3)c(C(F)(F)F)c2)cc1C#Cc1cnc(N)c2ccc(C#N)cc12,,29.6 µM,13.8 µM,8.48 µM,49.3 µM,12.3 µM,16.4,> 46.5 µM,13.4 µM,3.07 µM,0.135,4.21,2.09,0.0865,0.133,3.52,5.85,0.28,0.0468,0.0164
COc1ccc2c3c(ccc2c1)NC(C(=O)O)CC3 (configuration not stated),58.4 µM,> 100 µM,> 100 µM,> 100 µM,> 100 µM,> 100 µM,> 100,> 100 µM,> 100 µM,> 100 µM,,,,,,,,,,
Cc1cc(C)nc(NS(=O)(=O)c2ccc(Nc3nc4nc(NCc5ccccc5)nc(-c5ccc(O)cc5)c4c(=O)[nH]3)cc2)n1,81.3 µM,56.8 µM,> 100 µM,> 100 µM,> 100 µM,> 100 µM,> 100,> 100 µM,> 100 µM,> 100 µM,17.9,9.58,19.8,57.2,24.5,> 100,> 100,81.8,64.6,25.1
CCCCCCCC(=O)SCC/C=C/[C@@H]1CC(=O)NCc2cccc(n2)C2=N[C@@](C)(CS2)C(=O)N[C@@H](C(C)C)C(=O)O1,> 33.3 µM,> 33.3 µM,> 33.3 µM,,0.111 µM,> 33.3 µM,> 33.3,0.337 µM,> 33.3 µM,> 33.3 µM,0.0623,0.0827,0.0437,0.174,0.0202,0.0563,0.0254,0.0857,0.029,0.145
